Results: ChEMBL document CHEMBL1158384, “Design, synthesis, and biological evaluation of 1,5-benzothiazepine-4-one derivatives targeting factor VIIa/tissue factor” (Bioorg Med Chem Lett, 2009)

Key:
Prothrombin = Prothrombin (Homo sapiens, UniProt P00734); experiment: Inhibition of human factor 2a by spectrophotometry
[1] = target: Coagulation factor VII/tissue factor (Homo sapiens, UniProt P08709); experiment: Inhibition of human tissue factor/factor 7a; format: protein-complex assay
Coagulation factor X = Coagulation factor X (Homo sapiens, UniProt P00742); experiment: Inhibition of human factor 10a by spectrometry
Chain of Coagulation factor X (P00742 41-179 limits assumed): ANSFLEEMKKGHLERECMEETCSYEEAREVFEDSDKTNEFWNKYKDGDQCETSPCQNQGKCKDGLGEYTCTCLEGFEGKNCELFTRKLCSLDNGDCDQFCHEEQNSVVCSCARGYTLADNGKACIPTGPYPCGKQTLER
Chain of Coagulation factor X (P00742 235-488 limits assumed): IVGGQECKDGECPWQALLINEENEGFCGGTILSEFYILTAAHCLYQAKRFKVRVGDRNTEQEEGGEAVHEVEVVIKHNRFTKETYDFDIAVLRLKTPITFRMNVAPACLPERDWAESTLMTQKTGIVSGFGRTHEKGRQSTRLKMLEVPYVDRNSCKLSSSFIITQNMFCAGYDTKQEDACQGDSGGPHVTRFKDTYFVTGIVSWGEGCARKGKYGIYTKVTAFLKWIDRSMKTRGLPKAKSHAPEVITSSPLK

Chain of Coagulation factor VII/tissue factor (P08709 61-212 limits assumed): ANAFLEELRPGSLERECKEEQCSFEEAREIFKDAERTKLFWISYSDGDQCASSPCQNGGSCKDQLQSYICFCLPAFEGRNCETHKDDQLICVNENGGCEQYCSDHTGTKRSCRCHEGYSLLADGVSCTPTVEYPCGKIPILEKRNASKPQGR
Chain of Coagulation factor VII/tissue factor (P08709 213-466 limits assumed): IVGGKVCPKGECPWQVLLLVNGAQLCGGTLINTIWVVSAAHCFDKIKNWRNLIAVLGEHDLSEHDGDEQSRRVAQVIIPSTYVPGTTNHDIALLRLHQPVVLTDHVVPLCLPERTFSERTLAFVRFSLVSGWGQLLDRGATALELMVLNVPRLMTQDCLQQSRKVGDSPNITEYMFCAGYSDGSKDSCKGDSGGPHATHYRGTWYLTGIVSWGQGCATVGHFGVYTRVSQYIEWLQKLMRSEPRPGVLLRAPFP
Chain of Coagulation factor VII/tissue factor (P13726 33-295 partner limits assumed): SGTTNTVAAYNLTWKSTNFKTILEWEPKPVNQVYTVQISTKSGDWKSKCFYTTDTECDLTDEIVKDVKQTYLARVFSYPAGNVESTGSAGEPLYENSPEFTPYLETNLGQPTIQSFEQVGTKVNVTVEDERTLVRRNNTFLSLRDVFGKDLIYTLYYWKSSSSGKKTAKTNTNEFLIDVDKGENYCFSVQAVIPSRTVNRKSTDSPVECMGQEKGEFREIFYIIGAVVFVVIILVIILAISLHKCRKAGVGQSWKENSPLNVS

SMILES | IC50 (Prothrombin) [µM] | IC50 [1] [µM] | IC50 (Coagulation factor X) [µM]
N=C(N)c1ccc(CNC(=O)CN2C(=O)[C@@H](NC(=O)CCC(=O)O)CSc3ccccc32)cc1 | > 300 | 27.7 | 
CC(=O)N[C@@H]1CSc2ccccc2N(CCC(=O)NCc2ccc(C(=N)N)cc2)C1=O |  | 233 | 
N=C(N)c1ccc(CNC(=O)CN2C(=O)[C@H](NS(=O)(=O)Cc3ccccc3)CSc3cc(CCC(=O)O)ccc32)cc1 |  | 13.1 | 
Cc1nc(N)ccc1CNC(=O)CCN1C(=O)[C@H](NS(=O)(=O)Cc2ccccc2)CSc2ccccc21 |  | > 33 | 
Cc1nc(N)ccc1CNC(=O)CN1C(=O)[C@H](NCC(=O)O)CSc2ccccc21 |  | > 33 | 
Cc1nc(N)ccc1CNC(=O)CN1C(=O)[C@H](N)CSc2ccccc21 | 88 | > 300 | 
CC(=O)N[C@H]1CSc2ccccc2N(CC(=O)NCc2ccc(C(=N)N)cc2)C1=O | 100 | 37.3 | 
N=C(N)c1ccc(CNC(=O)CN2C(=O)[C@H](NS(=O)(=O)Cc3ccccc3)CSc3cc(CC(=O)O)ccc32)cc1 |  | 14.3 | 
N=C(N)c1ccc(CNC(=O)CCN2C(=O)[C@H](NS(=O)(=O)Cc3ccccc3)CSc3ccccc32)cc1 |  | 63 | 
N=C(N)c1ccc(CNC(=O)CCN2C(=O)[C@@H](NS(=O)(=O)Cc3ccccc3)CSc3ccccc32)cc1 |  | 19.7 | 
Cc1nc(N)ccc1CNC(=O)CN1C(=O)[C@@H](N)CSc2ccccc21 | 88 | > 300 | 
N=C(N)c1ccc(CNC(=O)CN2C(=O)[C@H](NS(=O)(=O)Cc3ccccc3)CSc3ccc(CC(N)C(=O)O)cc32)cc1 (stereo partly drawn) | 33 | 1.5 | 1.05
N=C(N)c1ccc(CNC(=O)CN2C(=O)[C@H](NS(=O)(=O)Cc3ccccc3)CSc3cc(C(=O)O)ccc32)cc1 |  | > 33 | 
N=C(N)c1ccc(CNC(=O)CN2C(=O)C(NC(=O)CCC(=O)O)CSc3ccccc32)cc1 (single isomer, unassigned) | 300 | 81 | 
Cc1nc(N)ccc1CNC(=O)CCN1C(=O)[C@H](NCC(=O)O)CSc2ccccc21 |  | > 33 | 
CC(=O)N[C@H]1CSc2ccccc2N(CCC(=O)NCc2ccc(C(=N)N)cc2)C1=O |  | 168 | 
N=C(N)c1ccc(CNC(=O)CN2C(=O)C(NS(=O)(=O)Cc3ccccc3)CSc3ccccc32)cc1 (single isomer, unassigned) | 0.37 | 2.16 | 3.28
N=C(N)c1ccc(CNC(=O)CN2C(=O)[C@H](NCC(=O)O)CSc3ccccc32)cc1 |  | 15.9 | 
Cc1nc(N)ccc1CNC(=O)CN1C(=O)[C@H](NS(=O)(=O)Cc2ccccc2)CSc2ccccc21 |  | > 33 | 
CC(=O)N[C@@H]1CSc2ccccc2N(CC(=O)NCc2ccc(C(=N)N)cc2)C1=O |  | 90 | 

SMILES | IC50 (Prothrombin) [µM] | IC50 [1] [µM] | IC50 (Coagulation factor X) [µM]
N=C(N)c1ccc(CNC(=O)CN2C(=O)[C@H](NS(=O)(=O)Cc3ccccc3)CSc3ccc(N)cc32)cc1 | 1.89 | 2.3 | 1.52
N=C(N)c1ccc(CNC(=O)CCN2C(=O)[C@@H](NCC(=O)O)CSc3ccccc32)cc1 | 33 | > 330 | 
N=C(N)c1ccc(CNC(=O)CN2C(=O)[C@H](NS(=O)(=O)Cc3ccccc3)CSc3ccc(-c4cccc([N+](=O)[O-])c4)cc32)cc1 | 0.79 | 5.96 | 2.81
N=C(N)c1ccc(CNC(=O)CN2C(=O)[C@H](NS(=O)(=O)Cc3ccccc3)CSc3ccc(CCC(=O)O)cc32)cc1 | 33 | 2.64 | 2.03
N=C(N)c1ccc(CNC(=O)CN2C(=O)[C@H](NS(=O)(=O)Cc3ccccc3)CSc3cc(CN)ccc32)cc1 | 10 | 5.6 | 0.8
CC(=O)N[C@H]1CSc2ccccc2N(CC(=O)NCc2ccc(N)nc2C)C1=O | 130 | > 300 | 
N=C(N)c1ccc(CNC(=O)CN2C(=O)[C@H](NC(=O)C(c3ccccc3)c3ccccc3)CSc3ccccc32)cc1 |  | > 33 | 
N=C(N)c1ccc(CNC(=O)CN2C(=O)[C@H](NS(=O)(=O)Cc3ccccc3)CSc3ccc(CC(=O)O)cc32)cc1 | 33 | 2.98 | 0.21
N=C(N)c1ccc(CNC(=O)CN2C(=O)[C@H](NS(=O)(=O)Cc3ccccc3)CSc3ccc(-c4ccccc4)cc32)cc1 |  | 10.9 | 
CC(=O)N[C@@H]1CSc2ccccc2N(CC(=O)NCc2ccc(N)nc2C)C1=O | 133 | > 300 | 
N=C(N)c1ccc(CNC(=O)CN2C(=O)[C@H](NS(=O)(=O)Cc3ccccc3)CSc3cc(N)ccc32)cc1 | 7.05 | 4.86 | 1.63
N=C(N)c1ccc(CNC(=O)CN2C(=O)[C@H](NS(=O)(=O)Cc3ccccc3)CSc3ccc(CN)cc32)cc1 | 10 | 1.86 | 1.72
N=C(N)c1ccc(CNC(=O)CN2C(=O)[C@@H](N)CSc3ccccc32)cc1 | 87 | 24.4 | 
N=C(N)c1ccc(CNC(=O)CN2C(=O)[C@H](NS(=O)(=O)Cc3ccccc3)CSc3ccc(C(=O)O)cc32)cc1 |  | 4.67 | 
N=C(N)c1ccc(CNC(=O)CN2C(=O)[C@H](NS(=O)(=O)Cc3ccccc3)CSc3ccc(CCN)cc32)cc1 | 6.23 | 1.32 | 2.79
N=C(N)c1ccc(CNC(=O)CCN2C(=O)[C@H](NC(=O)CCC(=O)O)CSc3ccccc32)cc1 |  | 61 | 
N=C(N)c1ccc(CNC(=O)CCN2C(=O)[C@H](NCC(=O)O)CSc3ccccc32)cc1 |  | 95 | 
N=C(N)c1ccc(CNC(=O)CN2C(=O)[C@H](NS(=O)(=O)Cc3ccccc3)CSc3ccc(-c4cccc(N)c4)cc32)cc1 | 10 | 6.86 | 3.23
N=C(N)c1ccc(CNC(=O)CCN2C(=O)[C@@H](NC(=O)CCC(=O)O)CSc3ccccc32)cc1 | > 33 | 166 | 
N=C(N)c1ccc(CNC(=O)CN2C(=O)[C@@H](NS(=O)(=O)Cc3ccccc3)CSc3ccccc32)cc1 | 48 | 27.9 | 
